# Test results reported in patent publication US4714706A, “Pyridyloxy derivatives and their use as insecticides” (Sumitomo Chemical Company, Limited, priority 1985, dated 1987).
# Where two headings read alike, the source gives them in different places.
# How the values were obtained:
# [1] = system: common mosquito (Culex pipiens pallens); experiment: Rate of emergence of last instar larvae of common mosquito reared 7 days in treated water (Test Example 1); type: in vivo; conditions: 3.5 ppm
# Protocol: An emulsifiable concentrate prepared according to Formulation Example 1 was diluted with water to make a 400 fold dilution. The dilution (0.7 ml) was added to 100 ml of distilled water. Last instar larvae of common mosquito (Culex pipiens pallens) were released therein and reared for 7 days until their emergence. The rate of emergence was observed according to the following criteria: […]
# [2] = system: housefly (Musca domestica); experiment: Emergence inhibition of housefly larvae reared in treated artificial culture (Test Example 2); type: in vivo; conditions: read-out: Emergence inhibition
# Protocol: Powdered animal feed (2 g) was thoroughly mixed with bran (14 g). An emulsifiable concentrate prepared according to Formulation Example 1 was diluted with water to a designed concentration and the dilution was added to the above mixture. The resultant mixture was stirred well to make an artificial culture. Thirty larvae of housefly (Musca domestica) were reared therein until their pupation. The obtained pupae were placed into a plastic cup, and the rate of emergence was determined. According to the following equation, the emergence inhibition (%) was calculated: [formula]
# [3] = last instar larvae of Culex pipiens pallens, reared 7 days
# [4] = 0.3 ppm, Musca domestica larvae
Structure (SMILES),"Rate of emergence [1, 3]","inhibition at 0.3 ppm [2, 4] [%]","inhibition at 1 ppm ([2]; 1 ppm, Musca domestica larvae) [%]","inhibition at 3 ppm ([2]; 3 ppm, Musca domestica larvae) [%]",other results
CC(C)CCCc1ccc(OCCOc2nccs2)cc1 [compound 35],A (less than 10%),51,100,100,
COC(C)(C)COc1ccc(OCCOc2nccs2)cc1 [compound 27],A (less than 10%),,,,
"COC(C)(C)CCCC(C)C/C=C/C(C)=C/C(=O)OC(C)C (stereo not drawn) [(a), methoprene, reference compound]",,,,,Rate of emergence ([1]; 168 h): A (less than 10%); inhibition at 0.3 ppm ([2]; Musca domestica): 2%; inhibition at 1 ppm ([2]; Musca domestica): 13%; inhibition at 3 ppm ([2]; Musca domestica): 60%
COC(C)(C)CCCC(C)CCCCOc1ccccn1 (stereo not drawn) [compound 1],A (less than 10%),,,,
Cc1cc(OCCOc2ccccn2)cc(C)c1OCCC(C)C [compound 33],A (less than 10%),,,,
CC(C)(C)CCOc1ccc(OCCOc2ccccn2)cc1 [compound 13],A (less than 10%),,,,
C=C(C)COc1ccc(OCCOc2ccccn2)cc1 [compound 5],A (less than 10%),,,,
Cc1cc(OCCOc2nccs2)cc(C)c1OCCC(C)C [compound 31],A (less than 10%),,,,
C=CCOc1ccc(OCCOc2ccccn2)cc1 [compound 6],A (less than 10%),,,,
CC(C)CCOc1ccc(OCC(C)Oc2ncccn2)cc1 (stereo not drawn) [compound 19],A (less than 10%),,,,
COC(C)(C)COc1ccc(OCCOc2ccccn2)cc1 [compound 3],A (less than 10%),,,,
CC(C)CCOc1ccc(OCC(C)Oc2ccccn2)cc1 (stereo not drawn) [compound 15],A (less than 10%),0,43,93,
CC(C)CCOc1ccc(OC(C)COc2ncccn2)cc1 (stereo not drawn) [compound 17],A (less than 10%),,,,
CC(C)CCOc1ccc(OCCOc2nccs2)cc1Cl [compound 30],A (less than 10%),,,,
CC(C)(C)COc1ccc(OCCOc2ccccn2)cc1 [compound 14],A (less than 10%),,,,
CC(C)CCOc1ccc(OCCOc2ccccn2)cc1Cl [compound 32],A (less than 10%),3,56,94,
CC(C)CCOc1ccc(OC(C)COc2nccs2)cc1 (stereo not drawn) [compound 24],A (less than 10%),,,,
CCCCOc1ccc(OCCOc2ccccn2)cc1 [Compound No. 9],A (less than 10%),,,,

Structure (SMILES),"Rate of emergence [1, 3]","inhibition at 0.3 ppm [2, 4] [%]","inhibition at 1 ppm ([2]; 1 ppm, Musca domestica larvae) [%]","inhibition at 3 ppm ([2]; 3 ppm, Musca domestica larvae) [%]",other results
CCOc1ccc(OCCOc2ccccn2)cc1 [compound 8],A (less than 10%),,,,
CC(C)COCc1ccc(OCCOc2nccs2)cc1 [Compound No. 29],A (less than 10%),100,100,100,
CC(C)CCCc1ccc(OCCOc2ccccn2)cc1 [compound 34],A (less than 10%),41,67,100,
CC(C)CCOc1ccc(OCCSc2ncccn2)cc1 [compound 23],A (less than 10%),,,,
CC(C)CCOc1ccc(OCCOc2nccs2)cc1 [compound 16],A (less than 10%),45,96,100,
CC(C)CCCC(C)CCCCOc1ncccn1 (stereo not drawn) [compound 4],A (less than 10%),,,,
CC(C)CCOc1ccc(OCC(C)Oc2nccs2)cc1 (stereo not drawn) [compound 25],A (less than 10%),8,58,100,
CCCOc1ccc(OCCOc2ccccn2)cc1 [compound 10],A (less than 10%),,,,
CC(C)CCOc1ccc(OC(C)COc2ccccn2)cc1 (stereo not drawn) [compound 18],A (less than 10%),,,,
CC(C)COc1ccc(OCCOc2nccs2)cc1 [compound 26],A (less than 10%),11,61,100,
CCCCCOc1ccc(OCCOc2ccccn2)cc1 [compound 11],A (less than 10%),,,,
CC(C)CCOc1ccc(OCCSC2=NCCS2)cc1 [compound 21],A (less than 10%),,,,
CC(C)COCc1ccc(OCCOc2ccccn2)cc1 [compound 28],A (less than 10%),93,100,100,
CC(C)CCOc1ccc(OCCOc2ccccn2)cc1 [Compound No. 7],A (less than 10%),31,87,100,
CC(C)CCOc1ccc(OCCSc2ccccn2)cc1 [Compound No. 22],A (less than 10%),,,,
CCC(C)COc1ccc(OCCOc2ccccn2)cc1 (stereo not drawn) [compound 12],A (less than 10%),0,20,83,
CC(C)CCOc1ccc(OCCOc2ncccn2)cc1 [compound 20],A (less than 10%),,,,
CC(C)COc1ccc(OCCOc2ccccn2)cc1 [Compound No. 2],A (less than 10%),3,42,100,
